Assay results: ChEMBL document CHEMBL3046316, “Synthesis and Acaricidal Activity of N-(1,3,4-Thiadiazol-2-yl)pyrazole-5-carboxamides and N-(1,3,4-Thiadiazol-2-yl)thiazole-5-carboxamides” (2003)

Experiments:
Assay type in all cases: functional
[1] = tested on: Tetranychus urticae; assay: Acaricidal activity against Tetranychus urticae (two-spotted spider mite) assessed as mite mortality at 500 ppm relative to untreated control
[2] = tested on: Tetranychus urticae; assay: Acaricidal activity against Tetranychus urticae (two-spotted spider mite) assessed as mite mortality at 200 ppm relative to untreated control
[3] = tested on: Tetranychus urticae; assay: Acaricidal activity against Tetranychus urticae (two-spotted spider mite) assessed as mite mortality at 50 ppm relative to untreated control

SMILES | mortality at 500 ppm [1] | mortality at 50 ppm [3] | other results
Cn1nc(C(C)(C)C)c(I)c1C(=O)Nc1nnc(C(F)(F)F)s1 | < 80% | – | –
Cn1nc(C(C)(C)C)c(Br)c1C(=O)Nc1nnc(C(F)(F)F)s1 | – | – | mortality at 200 ppm [2]: > 80%
Cn1nc(C(C)(C)C)cc1C(=O)Nc1nnc(C(F)(F)F)s1 | < 80% | – | –
Cn1nc(C(C)(C)C)c(Cl)c1C(=O)Nc1nnc(C(F)(F)C(F)(F)F)s1 | – | > 80% | –
Cn1nc(C(C)(C)C)c(Cl)c1C(=O)Nc1nnc(C(F)(F)C(F)(F)C(F)(F)F)s1 | – | > 80% | –
CCc1nc(C)c(C(=O)Nc2nnc(C(F)(F)C(F)(F)C(F)(F)F)s2)s1 | < 80% | – | –
CCC(C)c1nn(C)c(C(=O)Nc2nnc(C(F)(F)F)s2)c1Cl (stereo unspecified) | – | – | mortality at 200 ppm [2]: > 80%
Cn1nc(C2CC2)c(Cl)c1C(=O)Nc1nnc(C(F)(F)F)s1 | > 80% | – | –
Cc1nc(C)c(C(=O)Nc2nnc(C(F)(F)C(F)(F)C(F)(F)F)s2)s1 | > 80% | – | –
Cn1nc(C(C)(C)C)c(Cl)c1C(=O)Nc1nnc(C(F)F)s1 | < 80% | – | –
CCc1nn(C)c(C(=O)Nc2nnc(C(F)(F)F)s2)c1Cl | – | – | mortality at 200 ppm [2]: > 80%
CC(C)c1nn(C)c(C(=O)Nc2nnc(C(F)(F)F)s2)c1Cl | – | – | mortality at 200 ppm [2]: > 80%
Cn1nc(C(C)(C)C)c(Cl)c1C(=O)Nc1nnc(C(F)(F)C(F)(F)C(F)(F)C(F)(F)C(F)(F)F)s1 | – | > 80% | –
Cn1nc(C(C)(C)C)c(Cl)c1C(=O)Nc1nnc(C(F)(F)C(F)(F)C(F)(F)C(F)(F)C(F)(F)C(F)(F)F)s1 | < 80% | – | –
Cn1nc(C(C)(C)C)c(Cl)c1C(=O)Nc1nnc(C(F)(F)F)s1 | – | > 80% | –
CCCc1nn(C)c(C(=O)Nc2nnc(C(F)(F)F)s2)c1Cl | – | – | mortality at 200 ppm [2]: > 80%
Cn1nc(C(C)(C)C)c(Cl)c1C(=O)Nc1nnc(C(F)(F)C(F)(F)C(F)(F)C(F)(F)F)s1 | – | > 80% | –
Cc1nc(C(C)(C)C)sc1C(=O)Nc1nnc(C(F)(F)C(F)(F)F)s1 | – | > 80% | –
Cc1nn(C)c(C(=O)Nc2nnc(C(F)(F)F)s2)c1Cl | – | – | mortality at 200 ppm [2]: > 80%
Cn1nc(C(C)(C)C)c(Cl)c1C(=O)Nc1nnc(C(F)(F)C(F)F)s1 | < 80% | – | –
Cc1nc(C(C)(C)C)sc1C(=O)Nc1nnc(C(F)(F)C(F)(F)C(F)(F)C(F)(F)F)s1 | – | > 80% | –
Cc1nc(C(C)(C)C)sc1C(=O)Nc1nnc(C(F)(F)F)s1 | < 80% | – | –
Cc1nc(C(C)C)sc1C(=O)Nc1nnc(C(F)(F)C(F)(F)C(F)(F)F)s1 | < 80% | – | –
CC(C)Cc1nn(C)c(C(=O)Nc2nnc(C(F)(F)F)s2)c1Cl | – | – | mortality at 200 ppm [2]: > 80%
CCCCc1nn(C)c(C(=O)Nc2nnc(C(F)(F)F)s2)c1Cl | > 80% | – | –
Cc1nc(C(C)(C)C)sc1C(=O)Nc1nnc(C(F)(F)C(F)(F)C(F)(F)F)s1 | – | > 80% | –
